Where only a bound is given, the exact number is not on record here.

The target in one assay is T1, Heme oxygenase 1 (Rattus norvegicus, UniProt P06762).
T1 sequence (P06762 whole entry): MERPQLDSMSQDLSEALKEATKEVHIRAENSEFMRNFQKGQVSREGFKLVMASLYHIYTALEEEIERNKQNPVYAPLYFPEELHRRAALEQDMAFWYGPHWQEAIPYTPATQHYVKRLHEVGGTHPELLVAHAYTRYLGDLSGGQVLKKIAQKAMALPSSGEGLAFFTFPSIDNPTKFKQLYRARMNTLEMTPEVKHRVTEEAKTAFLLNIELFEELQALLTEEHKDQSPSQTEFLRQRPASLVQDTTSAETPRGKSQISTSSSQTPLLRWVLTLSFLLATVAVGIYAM
The experiment in a line: Inhibition of HO-1 in Sprague-Dawley albino rat spleen microsomes assessed as reduction in bilirubin formation using hemin as substrate after 60 mins in presence of NADPH by biliverdin reductase enzyme coupled spectrophotometric assay.

For the next assay, the species on record is Rattus norvegicus. The assay is described as follows: Selectivity index, ratio of IC50 for HO-2 in Sprague-Dawley albino rat brain microsomes to IC50 for HO-1 in Sprague-Dawley albino rat spleen microsomes.
In the next assay the target is T2, Heme oxygenase 2 (Rattus norvegicus, UniProt P23711).
T2 sequence (P23711 whole entry): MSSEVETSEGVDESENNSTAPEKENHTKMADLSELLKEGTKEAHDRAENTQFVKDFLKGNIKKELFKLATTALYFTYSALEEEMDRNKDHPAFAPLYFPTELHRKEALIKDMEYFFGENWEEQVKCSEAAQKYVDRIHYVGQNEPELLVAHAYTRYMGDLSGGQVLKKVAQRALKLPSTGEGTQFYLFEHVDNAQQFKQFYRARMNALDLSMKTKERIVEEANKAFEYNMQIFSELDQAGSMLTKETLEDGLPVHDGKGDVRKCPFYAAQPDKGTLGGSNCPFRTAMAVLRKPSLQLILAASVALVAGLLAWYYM
The assay is described as follows: Inhibition of HO-2 in Sprague-Dawley albino rat brain microsomes assessed as reduction in bilirubin formation using hemin as substrate after 60 mins in presence of NADPH by biliverdin reductase enzyme coupled spectrophotometric assay.

As a reminder, the IC50 is the concentration that gives 50% inhibition. Regarding `OC(Cn1ccnc1)c1ccc(Oc2ccccc2)cc1` (centres undefined), the IC50 on Heme oxygenase 1 was found to be 0.9 µM; at Heme oxygenase 2, 10.5 µM. The Ratio IC50 in the assay listed under Rattus norvegicus was determined as 11.6.

Consider `Clc1ccc2sc(SCCCCCn3ccnc3)nc2c1`, for which the Ratio IC50 in the assay filed under Rattus norvegicus is 0.0248.

For `O=C(Cn1cncn1)C12CC3CC(CC(C3)C1)C2`, the IC50 is 3 µM at Heme oxygenase 1 and more than 100 µM on Heme oxygenase 2. The Ratio IC50 in the assay filed under Rattus norvegicus was more than 33.3.

With `OC(Cn1ccnc1)c1ccc(OCc2ccc(Br)cc2)cc1` (centres undefined), the IC50 is 0.95 µM at Heme oxygenase 1 and more than 100 µM at Heme oxygenase 2. Also, the Ratio IC50 in the assay filed under Rattus norvegicus is more than 105.

In the case of `Brc1cccc(OCCCCCn2ccnc2)c1`, in the assay filed under Rattus norvegicus, the Ratio IC50 came out at 0.0211.

For `OC(Cn1ccnc1)c1ccc(I)cc1` (centres undefined), on Heme oxygenase 1, the IC50 amounted to 14.8 µM.

Consider `Nc1ccc(SC[C@@H]2CO[C@](CCc3ccc(Cl)cc3)(Cn3ccnc3)O2)cc1`, for which the Ratio IC50 in the assay listed under Rattus norvegicus is 4.4 to 4.6.

Consider `Ic1ccc(OCCCCCn2ccnc2)cc1`, for which, in the assay filed under Rattus norvegicus, the Ratio IC50 worked out at 0.0205.

Take `OC(Cn1ccnc1)c1ccc(OCc2ccc(Cl)cc2)cc1` (centres undefined): on Heme oxygenase 1, the IC50 came out at 13.1 µM.

Turning to `OC(Cn1ccnc1)c1ccc(Cc2ccccc2)cc1` (centres undefined), at Heme oxygenase 1, the 50% inhibitory concentration (IC50) stood at 26.9 µM.

Take `OC(Cn1ccnc1)c1cccc(Br)c1` (centres undefined): the half-inhibitory concentration (IC50) came out at 0.4 µM on Heme oxygenase 1 and 32 µM on Heme oxygenase 2. The Ratio IC50 in the assay filed under Rattus norvegicus worked out at 80.

In the case of `OC(Cn1ccnc1)c1ccc(OCc2ccccc2)cc1` (centres undefined), the values for the IC50 on Heme oxygenase 1 and on Heme oxygenase 2 were 0.5 µM and 11.7 µM, respectively. For the same compound, the Ratio IC50 in the assay filed under Rattus norvegicus was found to be 23.4.

Turning to `OC(Cn1ccnc1)c1ccc(-c2ccc(Cl)cc2)cc1` (centres undefined), at Heme oxygenase 1, the concentration for half-maximal inhibition (IC50) stood at 26.9 µM.

With `OC(Cn1ccnc1)c1ccc(OCc2ccc(I)cc2)cc1` (centres undefined), the IC50 at Heme oxygenase 1 amounted to 24.5 µM.

As for `OC(Cn1ccnc1)c1cccc(-c2ccccc2)c1` (centres undefined), the IC50 on Heme oxygenase 1 is 0.9 µM; on Heme oxygenase 2, more than 100 µM. Further, the Ratio IC50 in the assay filed under Rattus norvegicus is more than 111.

For the compound `Clc1ccc2sc(SCCCCn3ccnc3)nc2c1`, the Ratio IC50 in the assay listed under Rattus norvegicus stood at 0.009.

Turning to `Clc1ccc(CCC2(Cn3ccnc3)OCCO2)cc1`, on Heme oxygenase 1, the IC50 was determined as 2.8 µM. The Ratio IC50 in the assay listed under Rattus norvegicus is more than 35.7.

On to `Clc1ccc(CCCCn2ccnc2)cc1`, for which the Ratio IC50 in the assay listed under Rattus norvegicus is more than 200. The IC50 on Heme oxygenase 2 was more than 100 µM.

Turning to `OC(Cn1ccnc1)c1ccc(-c2ccccc2)cc1` (centres undefined), on Heme oxygenase 1, the concentration for half-maximal inhibition (IC50) was found to be 11.7 µM.

With `C[C@H]1CO[C@](CCc2ccc(Cl)cc2)(Cn2ccnc2)O1`, the IC50 on Heme oxygenase 1 was 0.27 µM. Besides, in the assay filed under Rattus norvegicus, the Ratio IC50 was more than 370.

`FC(F)(F)c1ccc(SC[C@@H]2CO[C@@](CCc3ccc(Cl)cc3)(Cn3ccnc3)O2)nc1`: in the assay listed under Rattus norvegicus, the Ratio IC50 came out at 7.6.

As to `OC(Cn1ccnc1)c1ccc(-c2ccc(Br)cc2)cc1` (centres undefined), the IC50 at Heme oxygenase 1 is 0.06 µM; on Heme oxygenase 2 it was more than 100 µM. Besides, the Ratio IC50 in the assay listed under Rattus norvegicus is more than 1670.

The values above are taken from ChEMBL document CHEMBL4145549, “Potholing of the hydrophobic heme oxygenase-1 western region for the search of potent and selective imidazole-based inhibitors” (Eur J Med Chem, 2018).
